Source: ChEMBL document CHEMBL4311957, “Recent advances in natural antifungal flavonoids and their derivatives” (Bioorg Med Chem Lett, 2019)
≈ marks a conversion by molar mass, not a printed value.

Key:
[1] = test system: Aspergillus fumigatus; assay: Fungicidal activity against Aspergillus fumigatus after 24 hrs by broth dilution method; format: functional
[2] = test system: Candida albicans; assay: Antifungal activity against Candida albicans after 24 hrs by broth dilution method; format: functional
[3] = test system: Trichophyton mentagrophytes; assay: Fungicidal activity against Trichophyton mentagrophytes after 24 hrs by broth dilution method; format: functional
[4] = test system: Trichophyton mentagrophytes; assay: Antifungal activity against Trichophyton mentagrophytes after 24 hrs by broth dilution method; format: functional
[5] = test system: Candida albicans; assay: Antifungal activity against Candida albicans after 48 hrs by agar disc-diffusion method; format: functional
[6] = test system: Candida albicans; assay: Synergistic antifungal activity against Candida albicans by microbroth dilution method; format: functional
[7] = test system: Candida albicans; assay: Antifungal activity against Candida albicans ATCC 10231 by microdilution method; format: functional
[8] = test system: Candida albicans; assay: Antifungal activity against Candida albicans 501 by microdilution method; format: functional
[9] = test system: Nakaseomyces glabratus; assay: Antifungal activity against Candida glabrata 531 by microdilution method; format: functional
[10] = test system: Nakaseomyces glabratus; assay: Antifungal activity against Candida glabrata 510 by microdilution method; format: functional
[11] = test system: Trichophyton rubrum; assay: Antifungal activity against Trichophyton rubrum ATCC MYA3108 by CLSI-based microdilution method; format: functional
[12] = test system: Nakaseomyces glabratus; assay: Antifungal activity against Candida glabrata 507 by microdilution method; format: functional
[13] = test system: Candida parapsilosis; assay: Antifungal activity against Candida parapsilosis 96 by microdilution method; format: functional; conditions: Lodderomyces parapsilosis
[14] = test system: Cryptococcus neoformans; assay: Antifungal activity against Cryptococcus neoformans by microdilution method; format: functional
[15] = test system: Nakaseomyces glabratus; assay: Antifungal activity against Candida glabrata 587 by microdilution method; format: functional
[16] = test system: Candida tropicalis; assay: Antifungal activity against Candida tropicalis 166 by microdilution method; format: functional
[17] = test system: Pichia kudriavzevii; assay: Antifungal activity against Candida krusei 168 by microdilution method; format: functional
[18] = test system: Candida albicans; assay: Antifungal activity against Candida albicans 53 by microdilution method; format: functional
[19] = test system: Nakaseomyces glabratus; assay: Antifungal activity against Candida glabrata 482 by microdilution method; format: functional
[20] = test system: Candida tropicalis; assay: Antifungal activity against Candida tropicalis CCC 131-2000 after 48 hrs by CLSI-based broth microdilution method; format: functional; conditions: CCC 131-2000, 48 h
[21] = test system: Candida albicans; assay: Antifungal activity against Candida albicans 498 by microdilution method; format: functional
[22] = test system: Candida albicans; assay: Antifungal activity against Candida albicans ATCC 10231 after 48 hrs by CLSI-based broth microdilution method; format: functional; conditions: ATCC 10231, 48 h
[23] = test system: Nakaseomyces glabratus; assay: Antifungal activity against Candida glabrata 493 by microdilution method; format: functional
[24] = test system: Trichophyton rubrum; assay: Antifungal activity against Trichophyton rubrum deltaTruMDR2 by CLSI-based microdilution method; format: functional
[25] = test system: Candida tropicalis; assay: Antifungal activity against FLC-resistant Candida tropicalis in presence of FLC; format: functional
[26] = test system: Cryptococcus neoformans; assay: Antifungal activity against Cryptococcus neoformans by CLSI-based microdilution method; format: functional
[27] = test system: Candida tropicalis; assay: Antifungal activity against FLC-resistant Candida tropicalis; format: functional
[28] = test system: Pichia kudriavzevii; assay: Antifungal activity against Candida krusei E 28 after 24 to 48 hrs; format: functional
[29] = test system: Pichia kudriavzevii; assay: Antifungal activity against Candida krusei ATCC 6258 after 24 hrs; format: functional; conditions: ATCC 6258, 24 h
[30] = test system: Candida albicans; assay: Antifungal activity against Candida albicans ATCC 44859 after 24 to 48 hrs; format: functional
[31] = test system: Aspergillus fumigatus; assay: Antifungal activity against Aspergillus fumigatus after 24 to 48 hrs; format: functional
[32] = test system: Trichophyton mentagrophytes; assay: Antifungal activity against Trichophyton mentagrophytes after 72 to 120 hrs; format: functional
[33] = test system: Candida tropicalis; assay: Antifungal activity against Candida tropicalis 156 after 24 to 48 hrs; format: functional
[34] = test system: Nakaseomyces glabratus; assay: Antifungal activity against Candida glabrata 20/I after 24 to 48 hrs; format: functional
[35] = test system: Candida parapsilosis; assay: Antifungal activity against Candida parapsilosis ATCC 22019 after 24 hrs; format: functional; conditions: Lodderomyces parapsilosis, ATCC 22019, 24 h
[36] = test system: Candida albicans; assay: Antifungal activity against Candida albicans ATCC 24433 after 24 hrs; format: functional; conditions: ATCC 24433, 24 h
[37] = test system: Nakaseomyces glabratus; assay: Antifungal activity against Candida glabrata ATCC 90030 after 24 hrs; format: functional; conditions: ATCC 90030, 24 h
[38] = test system: Candida albicans; assay: Synergistic antifungal activity against Candida albicans after 24 hrs in presence of Miconazole by checkerboard method; format: functional, organism-based

Compound: O=C1NC(=O)C(C(=O)/C=C/c2coc3ccccc3c2=O)C(=O)N1
- MFC [1]: 50 µg/mL (≈ 153 µM)
- MIC [2]: 12.5 µg/mL (≈ 38.3 µM)
- MFC [3]: 50 µg/mL (≈ 153 µM)
- MIC [4]: 12.5 µg/mL (≈ 38.3 µM)

Compound: O=C(CN1CCCCC1)Nc1ccc(C(=O)/C=C/c2ccc(Cl)cc2)cc1
- MIC [5]: 2 µg/mL (≈ 5.22 µM)

Compound: C[C@@H]1O[C@@H](Oc2cc(O)c3c(=O)c(O)c(-c4ccc(O)c(O)c4)oc3c2)[C@H](O)[C@H](O)[C@H]1O
- MIC [6]: > 64 µg/mL

Compound: O=c1c(O)c(-c2ccccc2)oc2cc(O)cc(O)c12 [GALANGIN]
- MIC [7]: > 83 µg/mL
- MIC [8]: > 83 µg/mL
- MIC [9]: 15.6 to 62.5 µg/mL (≈ 57.7 to 231 µM)
- MIC [10]: 15.6 to 62.5 µg/mL (≈ 57.7 to 231 µM)
- MIC [11]: > 1000 µg/mL
- MIC [12]: 15.6 to 62.5 µg/mL (≈ 57.7 to 231 µM)
- MIC [13]: > 83 µg/mL
- MIC [14]: 31.2 µg/mL (≈ 115 µM)
- MIC [15]: 15.6 to 62.5 µg/mL (≈ 57.7 to 231 µM)
- MIC [16]: > 83 µg/mL
- MIC [17]: > 83 µg/mL
- MIC [18]: > 83 µg/mL
- MIC [19]: 15.6 to 62.5 µg/mL (≈ 57.7 to 231 µM)
- MIC [20]: 31.2 µg/mL (≈ 115 µM)
- MIC [21]: > 83 µg/mL
- MIC [22]: 31.2 µg/mL (≈ 115 µM)
- MIC [23]: 15.6 to 62.5 µg/mL (≈ 57.7 to 231 µM)
- MIC [24]: > 1000 µg/mL

Compound: O=c1c(O)c(-c2ccc(O)c(O)c2)oc2cc(O)cc(O)c12 [QUERCETIN]
- MIC [7]: > 83 µg/mL
- MIC [8]: > 83 µg/mL
- MIC [9]: 7.8 to 15.8 µg/mL (≈ 25.8 to 52.3 µM)
- MIC [25]: 16 µg/mL
- MIC [10]: 7.8 to 15.8 µg/mL (≈ 25.8 to 52.3 µM)
- MIC [11]: 125 µg/mL (≈ 414 µM)
- MIC [12]: 7.8 to 15.8 µg/mL (≈ 25.8 to 52.3 µM)
- MIC [13]: > 83 µg/mL
- MIC [15]: 7.8 to 15.8 µg/mL (≈ 25.8 to 52.3 µM)
- MIC [16]: > 83 µg/mL
- MIC [17]: > 83 µg/mL
- MIC [18]: > 83 µg/mL
- MIC [19]: 7.8 to 15.8 µg/mL (≈ 25.8 to 52.3 µM)
- MIC [26]: > 125 µg/mL
- MIC [27]: ≤ 0.5 µg/mL
- MIC [21]: > 83 µg/mL
- MIC [23]: 7.8 to 15.8 µg/mL (≈ 25.8 to 52.3 µM)
- MIC [24]: 125 µg/mL (≈ 414 µM)

Compound: O=C(/C=C/c1ccccc1[N+](=O)[O-])c1cnccn1
- MIC [28]: 7.81 to 125 µg/mL (≈ 30.6 to 490 µM)
- MIC [29]: 0.78 to 3.12 µg/mL (≈ 3.06 to 12.2 µM)
- MIC [30]: 7.81 µg/mL (≈ 30.6 µM)
- MIC [31]: 7.81 to 500 µg/mL (≈ 30.6 to 1960 µM)
- MIC [32]: 6.51 to 31.2 µg/mL (≈ 25.5 to 122 µM)
- MIC [33]: 7.81 to 500 µg/mL (≈ 30.6 to 1960 µM)
- MIC [34]: 7.81 to 41.6 µg/mL (≈ 30.6 to 163 µM)
- MIC [35]: 0.78 to 3.12 µg/mL (≈ 3.06 to 12.2 µM)
- MIC [36]: 0.78 to 3.12 µg/mL (≈ 3.06 to 12.2 µM)
- MIC [37]: 0.78 to 3.12 µg/mL (≈ 3.06 to 12.2 µM)

Compound: COc1ccc(-c2cc(=O)c3c(O)cc(OC)cc3o2)cc1 [APIGENIN DIMETHYLETHER]
- IC50 [38]: 51.6 µg/mL
